Data on five compounds can be found in patent US12509421B2, “Preparation and application of deuterated 4-phenyl-4-piperidinols” (priority 2022, dated 2025).

Structures can show the parent of a compound that is named as a salt. Where two headings read alike, the source gives them in different places.

One series deals with hERG potassium channel (Homo sapiens, UniProt Q12809). Nature of the series: hERG potassium channel whole-cell patch clamp (HEK293). It counts as cell-based. Also on record: expressed in transfected cells; host or cells: HEK293 cell line. Particulars: for IC50: HEK293 cells stably expressing hERG, whole-cell patch clamp, room temperature, read-out: Half-inhibition concentration of compounds to be tested on hERG (IC50). A digest of the protocol: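 Whole-cell patch clamp in HEK293 cells at room temperature: tail current elicited by −80 to 30 mV for 2.5 s, then −50 mV for 4 s, every 10 s. Ascending concentrations were gravity-perfused for 5 min each, with each cell's compound-free current as control. IC50 came from nonlinear fit of inhibition.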
For orientation: Block of hERG is tested as a sign of cardiac risk.

The next series concerns Female Kunming mice. Particulars: as disclosed in patent CN201911076305.X; cited from earlier work.

Sequence of hERG potassium channel (Q12809 whole entry, the tested form may be a part): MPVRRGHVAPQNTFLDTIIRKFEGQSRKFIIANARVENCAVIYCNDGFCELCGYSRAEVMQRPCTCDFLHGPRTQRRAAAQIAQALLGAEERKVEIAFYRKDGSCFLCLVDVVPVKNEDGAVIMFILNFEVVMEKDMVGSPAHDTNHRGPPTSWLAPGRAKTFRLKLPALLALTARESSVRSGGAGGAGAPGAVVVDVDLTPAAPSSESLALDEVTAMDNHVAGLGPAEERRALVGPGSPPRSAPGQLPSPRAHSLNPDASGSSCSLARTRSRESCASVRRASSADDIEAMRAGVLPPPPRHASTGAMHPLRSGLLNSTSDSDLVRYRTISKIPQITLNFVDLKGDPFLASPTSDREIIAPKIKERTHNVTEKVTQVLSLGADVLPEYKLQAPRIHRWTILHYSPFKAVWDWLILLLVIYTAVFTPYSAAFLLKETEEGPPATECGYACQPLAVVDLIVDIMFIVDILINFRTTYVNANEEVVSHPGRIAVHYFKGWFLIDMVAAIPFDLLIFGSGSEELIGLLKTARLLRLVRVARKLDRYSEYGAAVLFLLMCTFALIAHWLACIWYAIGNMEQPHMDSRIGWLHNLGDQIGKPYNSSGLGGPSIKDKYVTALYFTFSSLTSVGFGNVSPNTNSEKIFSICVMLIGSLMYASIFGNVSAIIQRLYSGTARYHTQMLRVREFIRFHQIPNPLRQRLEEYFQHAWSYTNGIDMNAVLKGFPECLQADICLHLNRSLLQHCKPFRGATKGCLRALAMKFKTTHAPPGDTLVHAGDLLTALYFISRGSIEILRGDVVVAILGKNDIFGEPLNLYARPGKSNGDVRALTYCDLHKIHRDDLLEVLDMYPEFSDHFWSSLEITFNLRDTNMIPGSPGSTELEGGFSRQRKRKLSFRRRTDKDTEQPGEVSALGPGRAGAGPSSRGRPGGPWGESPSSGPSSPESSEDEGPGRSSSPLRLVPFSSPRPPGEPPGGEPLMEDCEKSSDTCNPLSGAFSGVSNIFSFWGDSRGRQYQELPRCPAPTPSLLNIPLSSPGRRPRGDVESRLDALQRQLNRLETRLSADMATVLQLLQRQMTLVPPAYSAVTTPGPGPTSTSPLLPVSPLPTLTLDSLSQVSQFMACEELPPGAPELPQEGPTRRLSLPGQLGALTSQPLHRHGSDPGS

For `[2H]C([2H])([2H])Oc1cccc([C@]2(O)CCN(S(=O)(=O)Cc3ccccc3)C[C@H]2CN(C([2H])([2H])[2H])C([2H])([2H])[2H])c1` [II-5hydrochloride], at hERG potassium channel, the “hERG inhibition grade” value is reported as “μM((Weak inhibition)” and the IC50 turned out to be 23.9 µM.
The like results for `[2H]C([2H])([2H])Oc1cccc([C@]2(O)CCN(C(=O)Cc3cc(F)c(F)cc3F)C[C@H]2CN(C([2H])([2H])[2H])C([2H])([2H])[2H])c1` [II-11hydrochloride] were, in that order, “μM((Weak inhibition)” and 20.2 µM.
On to `[2H]C([2H])([2H])N(C[C@@H]1CN(C(=O)Cc2cc(F)c(F)cc2F)CC[C@@]1(O)c1cccc(OC)c1)C([2H])([2H])[2H]` [II-9hydrochloride], for which, on hERG potassium channel, the “hERG inhibition grade” value was “μM((Weak inhibition)” and the IC50 amounted to 20.5 µM.
With `[2H]C([2H])([2H])N(C[C@@H]1CN(S(=O)(=O)Cc2ccccc2)CC[C@@]1(O)c1cccc(OC)c1)C([2H])([2H])[2H]` [II-3hydrochloride], at hERG potassium channel, the “hERG inhibition grade” value is “μM((Weak inhibition)” and the IC50 turned out to be 14.7 µM.
With `COc1cccc([C@]2(O)CCN(S(=O)(=O)Cc3ccccc3)C[C@H]2CN(C)C)c1.Cl` [Example 20 of CN201911076305.X, reference compound], the “hERG inhibition grade” value on hERG potassium channel (listed as Example 20 of patent CN201911076305.X, hydrochloride) is on record as “moderate inhibitory effects on hERG”; at hERG potassium channel (listed as example 20 of the prior art CN201911076305.X, hydrochloride), “μM(Moderate intensity inhibition)”. Besides, the “ED50 in mouse hot plate experiments” value in the series with Female Kunming mice is reported as 0.49 mg/kg.
